Values belong to the molecule of their own block, whether it stands above or below them.
Tests used:
S. cerevisiae Chs1 [1] = target: T1, S. cerevisiae Chs1 (Saccharomyces cerevisiae, UniProt P08004); assay: in vitro chitin synthase activity assay; assay type: biochemical; details: activator; UDP-GlcNAc as donor substrate
T1 construct: expressed and purified membrane protein, homodimer; residues numbered to 1131; residues 1-377, 699-703, 897-907, 1076-1084 not resolved
T1 sequence (P08004 1-1131): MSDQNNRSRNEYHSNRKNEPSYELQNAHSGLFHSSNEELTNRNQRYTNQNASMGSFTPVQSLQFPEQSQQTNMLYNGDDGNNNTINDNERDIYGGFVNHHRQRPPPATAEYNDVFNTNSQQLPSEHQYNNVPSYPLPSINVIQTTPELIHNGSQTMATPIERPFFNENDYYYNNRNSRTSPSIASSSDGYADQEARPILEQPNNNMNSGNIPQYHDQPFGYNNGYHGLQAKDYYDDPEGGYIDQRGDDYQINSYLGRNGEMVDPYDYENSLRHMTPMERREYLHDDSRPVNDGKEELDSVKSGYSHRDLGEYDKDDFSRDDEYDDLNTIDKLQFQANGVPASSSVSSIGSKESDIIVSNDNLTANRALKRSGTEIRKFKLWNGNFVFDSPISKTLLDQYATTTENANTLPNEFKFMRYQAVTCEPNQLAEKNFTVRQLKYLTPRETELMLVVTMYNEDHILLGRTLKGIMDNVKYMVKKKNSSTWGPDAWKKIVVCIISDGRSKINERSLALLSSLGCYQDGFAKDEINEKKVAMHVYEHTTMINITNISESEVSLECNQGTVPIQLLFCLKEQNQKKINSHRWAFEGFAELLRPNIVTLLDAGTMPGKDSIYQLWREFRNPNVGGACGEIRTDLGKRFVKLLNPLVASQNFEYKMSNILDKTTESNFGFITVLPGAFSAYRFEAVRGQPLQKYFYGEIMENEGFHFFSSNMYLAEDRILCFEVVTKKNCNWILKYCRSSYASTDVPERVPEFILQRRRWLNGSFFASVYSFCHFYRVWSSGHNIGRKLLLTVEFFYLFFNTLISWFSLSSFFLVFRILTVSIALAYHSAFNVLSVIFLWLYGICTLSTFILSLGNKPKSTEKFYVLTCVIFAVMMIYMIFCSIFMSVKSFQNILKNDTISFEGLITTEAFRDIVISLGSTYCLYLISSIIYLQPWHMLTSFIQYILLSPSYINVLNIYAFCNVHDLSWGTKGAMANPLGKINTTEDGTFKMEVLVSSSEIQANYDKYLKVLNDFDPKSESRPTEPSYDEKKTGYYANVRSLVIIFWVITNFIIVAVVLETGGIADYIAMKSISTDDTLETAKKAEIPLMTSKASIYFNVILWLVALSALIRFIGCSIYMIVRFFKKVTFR

S. cerevisiae Chs1 [2] = target: T1, S. cerevisiae Chs1; assay: in vitro chitin synthase activity assay; cryo-EM structure of the complex at […] A also solved; assay type: biochemical
[3] = target: the molecule itself; assay: cryo-EM structure; purified Chs1 in complex with Nikkomycin Z (NikZ), in detergent micelle; 2.9 Å, imposed C2 symmetry

Molecule: CC(=O)N[C@H]1C(O)O[C@H](CO)[C@@H](O)[C@@H]1O (stereo partly drawn) [N-acetylglucosamine]
in vitro chitin synthase activity assay (S. cerevisiae Chs1 [1]): Chs1 activity can be significantly stimulated by GlcNAc

IC50 (S. cerevisiae Chs1 [2]): 367 nM
Molecule: C[C@@H]([C@H](N)C(=O)N[C@H](C(=O)O)[C@H]1O[C@@H](n2ccc(=O)[nH]c2=O)[C@H](O)[C@@H]1O)[C@H](O)c1ccc(O)cn1 [Nikkomycin Z]

B1: S. cerevisiae chitin synthase Chs1 (enzyme)
chain: T1 sequence (P08004 1-1131)
notes: Chitin synthase 1 (Chs1) of S. cerevisiae; residues 1-377, 699-703, 897-907 and 1076-1084 are not resolved in the map; Homodimer; source: expressed and purified
stoichiometry N [3]: 2

Source: PMC9726829, “Structures and mechanism of chitin synthase and its inhibition by antifungal drug Nikkomycin Z” (Cell Discovery, 2022)
